Literature values as cited in patent US8512311B2, “Augmentation of intraluminal microvessel formation to facilitate guide wire crossing in chronic total occlusions” (priority 2004, dated 2013).

System: venous thrombi
Details: injection into venous thrombi, rat model, compared to controls

In the case of “vascular endothelial growth factor [VEGF protein]”, the “increase in thrombus recanalization” value is given as “two-fold”.
